# Results reported in ChEMBL document CHEMBL1201862, “PubChem BioAssay data set” (2004).
# Calls of active or inactive are those of the source.
# Assays:
# [1] = Luminescence Cell-Based Dose Retest to Confirm Inhibitors of Cancer Stem Cells. [Related pubchem assays (depositor defined):AID2717, AID2721]; assay type: functional; details: Homo sapiens
# [2] = target: T1, Streptokinase A (Streptococcus pyogenes serotype M1, UniProt P10520); experiment: S. pyogenes streptokinase expression inhibitors, potency, dose response, plasminogen activation absorbance, OD405 (AID 1914); assay type: functional, Streptococcus pyogenes M1 GAS;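 also: secreted streptokinase activity via plasminogen activation per viability signal from cell pellet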
# T1 sequence (P10520 whole entry): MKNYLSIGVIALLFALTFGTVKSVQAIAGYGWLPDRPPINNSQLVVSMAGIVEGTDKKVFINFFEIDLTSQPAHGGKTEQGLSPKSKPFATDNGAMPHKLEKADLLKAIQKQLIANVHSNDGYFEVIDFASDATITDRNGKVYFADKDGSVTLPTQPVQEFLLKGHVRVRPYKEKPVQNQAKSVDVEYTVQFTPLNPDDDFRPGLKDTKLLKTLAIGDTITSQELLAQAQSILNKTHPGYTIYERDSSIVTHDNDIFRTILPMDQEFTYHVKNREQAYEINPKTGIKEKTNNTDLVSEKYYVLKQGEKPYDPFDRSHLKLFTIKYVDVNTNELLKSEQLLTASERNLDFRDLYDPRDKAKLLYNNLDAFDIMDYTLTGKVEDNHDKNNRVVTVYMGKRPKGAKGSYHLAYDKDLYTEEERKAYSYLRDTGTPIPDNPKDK
# [3] = target: Heat shock cognate 71 kDa protein (Homo sapiens, UniProt P11142); experiment: In Vitro Hsc70 Dose Response Fluorescence Polarization Assay. [Related pubchem assays: 1072 ]
# [4] = target: Voltage-gated N-type calcium channel alpha-1B subunit/Amyloid beta A4 precursor protein-binding family A member 1 (Homo sapiens, UniProt Q00975+Q02410); assay type: protein assay
# [5] = target: Glyceraldehyde-3-phosphate dehydrogenase (Homo sapiens, UniProt P04406)
# [6] = target: Runt-related transcription factor 1/Core-binding factor subunit beta (Homo sapiens, UniProt Q01196+Q13951); experiment: inhibitors of RUNX1 Runt–CBFb-SMMHC binding, primary screen, biochemical, FRET, Cerulean-Runt, Venus-CBFb-SMMHC, uHTS (AID 1434); assay type: protein assay;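 also: partner is the CBFb-SMMHC leukemia fusion protein rather than wild-type CBFb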
# [7] = target: 5'-AMP-activated protein kinase catalytic subunit alpha-1 (Homo sapiens, UniProt Q13131); assay type: functional
# [8] = target: Inhibitor of nuclear factor kappa-B kinase subunit epsilon (Homo sapiens, UniProt Q14164); experiment: Navigating the Kinome. Panel member name: IKBKE; assay type: functional
# [9] = target: Macrophage-stimulating protein receptor (Homo sapiens, UniProt Q04912); experiment: Navigating the Kinome. Panel member name: MST1R; assay type: functional
# [10] = target: Calcium/calmodulin-dependent protein kinase type II subunit alpha (Homo sapiens, UniProt Q9UQM7); experiment: Navigating the Kinome. Panel member name: CAMK2A; assay type: functional
# [11] = target: Vascular endothelial growth factor receptor 1 (Homo sapiens, UniProt P17948); assay type: functional;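 also: measured within a kinome-wide profiling panel, FLT1 as the panel member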
# [12] = cytotoxicity in HEK-293T cells, dose response, cytotoxicity control for TCR NF-kB inhibitor project, luminescence, T-cell screen hits (AID 489026); assay type: functional, cell-based;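 also: cells exposed to compound about 14 hours before the viability readout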
# [13] = tested on: BJ; experiment: cytotoxicity toward BJ-TERT-LT-ST fibroblasts, dose response, cell-based, RAS-independent, luminescence (AID 1935); assay type: functional; details: Homo sapiens;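 also: BJ fibroblasts immortalized with TERT plus LT and ST oncogenes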
# [14] = target: T2, Aminopeptidase N (Plasmodium falciparum FcB1/Columbia, UniProt O96935); experiment: P. falciparum M1AAP inhibitors, biochemical, fluorogenic H-Leu-NHMec substrate, 1536-well (AID 1445); design: species or system Plasmodium falciparum 3D7, 3D7
# T2 sequence (O96935 whole entry): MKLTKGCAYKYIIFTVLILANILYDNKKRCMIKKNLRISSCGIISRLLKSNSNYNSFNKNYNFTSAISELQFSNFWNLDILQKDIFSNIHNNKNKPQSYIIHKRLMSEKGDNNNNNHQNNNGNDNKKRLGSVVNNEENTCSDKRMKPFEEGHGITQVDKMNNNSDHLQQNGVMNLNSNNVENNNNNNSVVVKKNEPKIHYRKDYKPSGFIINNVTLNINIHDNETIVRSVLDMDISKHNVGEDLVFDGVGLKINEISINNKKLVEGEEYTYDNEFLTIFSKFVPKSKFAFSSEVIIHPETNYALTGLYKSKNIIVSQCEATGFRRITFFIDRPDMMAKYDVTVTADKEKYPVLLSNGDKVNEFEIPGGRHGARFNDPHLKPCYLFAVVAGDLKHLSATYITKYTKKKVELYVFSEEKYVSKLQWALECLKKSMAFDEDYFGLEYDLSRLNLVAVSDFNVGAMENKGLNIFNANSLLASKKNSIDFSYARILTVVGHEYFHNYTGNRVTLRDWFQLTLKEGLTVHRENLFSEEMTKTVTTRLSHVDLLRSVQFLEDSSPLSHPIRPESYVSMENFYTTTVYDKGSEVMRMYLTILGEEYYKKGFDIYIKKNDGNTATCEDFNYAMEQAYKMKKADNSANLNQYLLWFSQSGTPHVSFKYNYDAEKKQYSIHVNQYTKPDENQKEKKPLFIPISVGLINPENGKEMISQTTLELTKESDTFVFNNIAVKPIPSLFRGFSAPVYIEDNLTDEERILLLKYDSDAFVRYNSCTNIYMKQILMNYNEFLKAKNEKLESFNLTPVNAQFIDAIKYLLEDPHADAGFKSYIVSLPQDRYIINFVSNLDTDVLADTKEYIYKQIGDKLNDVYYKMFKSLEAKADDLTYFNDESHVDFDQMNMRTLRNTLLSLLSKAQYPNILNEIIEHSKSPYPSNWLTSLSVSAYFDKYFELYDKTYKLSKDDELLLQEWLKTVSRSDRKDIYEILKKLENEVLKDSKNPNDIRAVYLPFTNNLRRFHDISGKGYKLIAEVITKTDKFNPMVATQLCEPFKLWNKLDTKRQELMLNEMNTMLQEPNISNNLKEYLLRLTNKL
# [15] = target: Interleukin-1 receptor-associated kinase 4 (Homo sapiens, UniProt Q9NWZ3); assay type: functional
# [16] = target: Cyclin-dependent kinase 2 (Homo sapiens, UniProt P24941); assay type: functional;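 also: CDK2 measured as one member of a broad kinome profiling panel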
# [17] = target: Tyrosine-protein kinase BTK (Homo sapiens, UniProt Q06187); assay type: functional
# [18] = target: RAC-gamma serine/threonine-protein kinase (Homo sapiens, UniProt Q9Y243); assay type: functional
# [19] = target: Protein kinase C iota type (Homo sapiens, UniProt P41743); assay type: functional;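 also: measured within a kinome-wide kinase panel, PRKCI as panel member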
# [20] = target: MAP kinase-activated protein kinase 5 (Homo sapiens, UniProt Q8IW41); assay type: functional;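 also: measured as one member of a kinome panel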
# [21] = target: 3-phosphoinositide-dependent protein kinase 1 (Homo sapiens, UniProt O15530); assay type: functional;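 also: value comes from the Navigating the Kinome panel, PDPK1 member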
# [22] = target: Homeodomain-interacting protein kinase 4 (Homo sapiens, UniProt Q8NE63); assay type: functional
# [23] = target: Mitogen-activated protein kinase kinase kinase kinase 5 (Homo sapiens, UniProt Q9Y4K4); assay type: functional;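 also: measured as one member of a kinome-spanning kinase panel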
# 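For AC50 in this document: cells exposed to compound for roughly 70 hours or longer before luminescence read.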
# Heat shock cognate 71 kDa protein, sequence (P11142 whole entry): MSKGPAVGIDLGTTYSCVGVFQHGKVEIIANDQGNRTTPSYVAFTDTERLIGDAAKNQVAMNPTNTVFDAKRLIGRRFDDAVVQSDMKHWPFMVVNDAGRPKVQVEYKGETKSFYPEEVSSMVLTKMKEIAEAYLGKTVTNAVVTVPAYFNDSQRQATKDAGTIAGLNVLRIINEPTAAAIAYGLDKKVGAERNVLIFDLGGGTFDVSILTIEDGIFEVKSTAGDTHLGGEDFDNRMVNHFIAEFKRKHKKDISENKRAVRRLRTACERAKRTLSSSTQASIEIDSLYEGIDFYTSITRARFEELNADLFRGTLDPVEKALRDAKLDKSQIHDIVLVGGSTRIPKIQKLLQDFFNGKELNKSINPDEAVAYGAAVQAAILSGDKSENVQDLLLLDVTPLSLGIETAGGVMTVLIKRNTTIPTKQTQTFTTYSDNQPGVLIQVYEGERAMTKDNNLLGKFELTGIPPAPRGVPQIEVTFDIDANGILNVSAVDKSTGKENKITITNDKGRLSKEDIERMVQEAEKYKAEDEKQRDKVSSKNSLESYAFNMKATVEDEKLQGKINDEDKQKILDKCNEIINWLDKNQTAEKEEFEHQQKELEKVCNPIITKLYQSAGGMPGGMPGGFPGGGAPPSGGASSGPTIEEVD
# Macrophage-stimulating protein receptor, sequence (Q04912 25-304 limits assumed): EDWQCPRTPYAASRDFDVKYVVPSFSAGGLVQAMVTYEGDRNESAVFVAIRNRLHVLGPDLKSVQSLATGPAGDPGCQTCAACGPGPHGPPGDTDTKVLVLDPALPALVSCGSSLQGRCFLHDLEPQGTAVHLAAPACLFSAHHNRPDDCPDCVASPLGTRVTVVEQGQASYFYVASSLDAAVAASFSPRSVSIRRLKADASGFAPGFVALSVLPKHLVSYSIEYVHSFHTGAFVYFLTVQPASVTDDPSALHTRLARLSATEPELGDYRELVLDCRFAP
# Macrophage-stimulating protein receptor, sequence (Q04912 310-1400 limits assumed): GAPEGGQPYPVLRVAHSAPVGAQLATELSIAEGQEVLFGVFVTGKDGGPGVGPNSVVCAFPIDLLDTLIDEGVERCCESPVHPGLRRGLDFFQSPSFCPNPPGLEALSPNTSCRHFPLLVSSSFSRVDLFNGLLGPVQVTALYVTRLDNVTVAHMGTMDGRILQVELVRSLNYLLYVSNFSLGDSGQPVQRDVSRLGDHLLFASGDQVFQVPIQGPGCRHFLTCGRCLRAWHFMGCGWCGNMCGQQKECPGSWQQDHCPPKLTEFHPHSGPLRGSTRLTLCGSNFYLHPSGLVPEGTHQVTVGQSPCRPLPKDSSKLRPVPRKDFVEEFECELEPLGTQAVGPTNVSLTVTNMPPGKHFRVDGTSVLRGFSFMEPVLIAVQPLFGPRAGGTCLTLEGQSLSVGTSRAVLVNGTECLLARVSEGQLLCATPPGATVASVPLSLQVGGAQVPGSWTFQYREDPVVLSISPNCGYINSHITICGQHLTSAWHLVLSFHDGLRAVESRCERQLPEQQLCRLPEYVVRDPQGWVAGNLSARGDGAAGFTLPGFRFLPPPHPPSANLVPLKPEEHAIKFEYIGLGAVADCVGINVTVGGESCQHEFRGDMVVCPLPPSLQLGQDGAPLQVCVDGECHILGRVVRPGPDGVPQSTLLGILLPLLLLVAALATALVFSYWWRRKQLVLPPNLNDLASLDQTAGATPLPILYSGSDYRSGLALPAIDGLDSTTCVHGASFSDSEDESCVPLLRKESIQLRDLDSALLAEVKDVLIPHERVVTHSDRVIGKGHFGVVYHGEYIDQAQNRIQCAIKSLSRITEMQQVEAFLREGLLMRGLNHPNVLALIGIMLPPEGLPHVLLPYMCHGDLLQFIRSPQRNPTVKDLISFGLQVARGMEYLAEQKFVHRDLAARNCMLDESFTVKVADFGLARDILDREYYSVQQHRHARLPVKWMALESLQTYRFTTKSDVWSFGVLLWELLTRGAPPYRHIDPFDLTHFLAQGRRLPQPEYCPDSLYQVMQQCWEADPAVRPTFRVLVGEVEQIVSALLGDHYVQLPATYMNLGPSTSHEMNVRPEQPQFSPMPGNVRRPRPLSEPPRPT
# Inhibitor of nuclear factor kappa-B kinase subunit epsilon, sequence (Q14164 whole entry): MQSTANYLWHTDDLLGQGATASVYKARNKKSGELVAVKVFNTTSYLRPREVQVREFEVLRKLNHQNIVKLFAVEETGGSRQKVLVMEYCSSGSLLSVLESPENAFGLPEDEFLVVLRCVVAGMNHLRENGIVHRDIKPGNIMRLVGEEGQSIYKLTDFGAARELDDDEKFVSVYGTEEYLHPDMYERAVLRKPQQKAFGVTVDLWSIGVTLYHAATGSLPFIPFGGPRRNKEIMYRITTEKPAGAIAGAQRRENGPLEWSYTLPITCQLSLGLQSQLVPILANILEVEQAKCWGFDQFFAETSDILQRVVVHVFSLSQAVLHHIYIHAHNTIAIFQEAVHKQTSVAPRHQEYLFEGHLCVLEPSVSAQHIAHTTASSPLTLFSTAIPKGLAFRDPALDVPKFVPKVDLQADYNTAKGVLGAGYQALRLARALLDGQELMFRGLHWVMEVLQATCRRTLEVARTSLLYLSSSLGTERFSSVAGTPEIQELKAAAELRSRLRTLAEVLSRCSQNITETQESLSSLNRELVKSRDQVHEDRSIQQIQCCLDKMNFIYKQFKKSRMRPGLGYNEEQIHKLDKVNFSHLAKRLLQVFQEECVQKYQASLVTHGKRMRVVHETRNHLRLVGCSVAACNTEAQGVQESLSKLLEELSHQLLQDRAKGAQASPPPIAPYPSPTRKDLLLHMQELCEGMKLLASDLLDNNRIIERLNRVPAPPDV
# Vascular endothelial growth factor receptor 1, sequence (P17948 whole entry): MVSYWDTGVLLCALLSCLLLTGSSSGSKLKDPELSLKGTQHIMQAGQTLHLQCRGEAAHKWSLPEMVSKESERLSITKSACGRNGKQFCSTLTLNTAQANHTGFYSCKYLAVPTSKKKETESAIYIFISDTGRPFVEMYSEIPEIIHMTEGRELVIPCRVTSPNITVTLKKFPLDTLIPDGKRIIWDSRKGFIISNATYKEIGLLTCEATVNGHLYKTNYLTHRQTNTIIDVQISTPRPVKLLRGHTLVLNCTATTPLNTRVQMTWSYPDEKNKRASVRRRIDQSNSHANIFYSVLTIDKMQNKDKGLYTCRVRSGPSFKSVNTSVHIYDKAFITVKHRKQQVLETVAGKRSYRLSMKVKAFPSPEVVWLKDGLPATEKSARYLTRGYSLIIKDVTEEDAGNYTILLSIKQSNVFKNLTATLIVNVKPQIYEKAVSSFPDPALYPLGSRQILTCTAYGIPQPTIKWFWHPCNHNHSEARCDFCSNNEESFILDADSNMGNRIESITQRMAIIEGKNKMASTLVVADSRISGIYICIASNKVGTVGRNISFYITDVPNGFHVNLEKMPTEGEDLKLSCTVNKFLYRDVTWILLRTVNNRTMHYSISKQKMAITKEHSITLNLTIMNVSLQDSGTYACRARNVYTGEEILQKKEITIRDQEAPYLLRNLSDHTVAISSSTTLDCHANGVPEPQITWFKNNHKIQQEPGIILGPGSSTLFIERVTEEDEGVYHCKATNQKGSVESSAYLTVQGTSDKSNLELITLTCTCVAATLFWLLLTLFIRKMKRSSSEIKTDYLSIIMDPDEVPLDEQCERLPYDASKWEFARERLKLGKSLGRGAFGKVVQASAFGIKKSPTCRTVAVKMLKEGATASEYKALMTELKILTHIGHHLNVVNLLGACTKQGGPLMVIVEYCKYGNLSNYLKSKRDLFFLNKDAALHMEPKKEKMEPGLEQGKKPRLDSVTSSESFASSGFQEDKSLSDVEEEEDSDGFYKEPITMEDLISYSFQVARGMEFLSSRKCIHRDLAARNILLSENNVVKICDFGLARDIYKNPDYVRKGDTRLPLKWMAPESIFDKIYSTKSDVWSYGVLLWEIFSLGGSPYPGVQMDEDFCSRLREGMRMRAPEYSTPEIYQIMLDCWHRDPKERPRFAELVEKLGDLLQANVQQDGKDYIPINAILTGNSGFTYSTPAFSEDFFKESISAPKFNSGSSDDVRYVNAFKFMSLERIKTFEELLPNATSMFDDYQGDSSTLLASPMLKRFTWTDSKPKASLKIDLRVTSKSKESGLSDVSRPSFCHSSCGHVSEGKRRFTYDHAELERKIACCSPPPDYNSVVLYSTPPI
# Glyceraldehyde-3-phosphate dehydrogenase, sequence (P04406 whole entry, the tested form may be a part): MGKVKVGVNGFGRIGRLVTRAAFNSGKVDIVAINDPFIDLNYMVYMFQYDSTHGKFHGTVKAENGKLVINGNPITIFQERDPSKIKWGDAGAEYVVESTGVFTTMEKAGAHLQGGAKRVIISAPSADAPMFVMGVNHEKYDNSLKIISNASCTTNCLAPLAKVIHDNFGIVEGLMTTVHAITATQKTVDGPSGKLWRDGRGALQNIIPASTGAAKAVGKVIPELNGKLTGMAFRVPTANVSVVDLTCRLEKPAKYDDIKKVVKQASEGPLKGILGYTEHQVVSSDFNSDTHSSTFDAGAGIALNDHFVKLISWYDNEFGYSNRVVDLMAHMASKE
# Tyrosine-protein kinase BTK, sequence (Q06187 whole entry): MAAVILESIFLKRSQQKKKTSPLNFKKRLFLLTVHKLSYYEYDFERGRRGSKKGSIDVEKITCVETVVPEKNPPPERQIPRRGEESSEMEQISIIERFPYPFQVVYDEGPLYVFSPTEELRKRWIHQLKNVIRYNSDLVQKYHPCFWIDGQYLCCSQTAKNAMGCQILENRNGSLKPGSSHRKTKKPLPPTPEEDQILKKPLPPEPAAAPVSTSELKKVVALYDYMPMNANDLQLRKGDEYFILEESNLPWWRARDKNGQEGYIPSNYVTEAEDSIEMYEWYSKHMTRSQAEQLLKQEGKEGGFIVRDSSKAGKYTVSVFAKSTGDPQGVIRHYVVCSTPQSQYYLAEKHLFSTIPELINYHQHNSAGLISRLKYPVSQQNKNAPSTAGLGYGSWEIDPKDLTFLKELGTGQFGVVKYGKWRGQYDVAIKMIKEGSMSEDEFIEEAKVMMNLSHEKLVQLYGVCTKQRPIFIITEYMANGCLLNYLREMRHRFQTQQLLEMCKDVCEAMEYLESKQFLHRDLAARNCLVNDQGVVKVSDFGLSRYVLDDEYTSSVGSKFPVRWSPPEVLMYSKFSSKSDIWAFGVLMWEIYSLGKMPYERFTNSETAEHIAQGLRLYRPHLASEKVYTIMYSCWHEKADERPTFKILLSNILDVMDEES
smiles,measurement,setting,value
O=C1/C(=C\c2cccc(O)c2O)SC(=S)N1Cc1ccccc1,AC50,[1],1.67 µM (active)
CC(C)(C)c1cc[n+](C2=C([N-]S(=O)(=O)c3cccs3)C(=O)c3ccccc3C2=O)cc1,EC50,[2],3.8 µM (active)
COc1cccc2c1NC(C(=O)O)C1CC=CC21 (stereo not drawn),IC50,[3],25.2 µM (active)
same,IC50,[4],4.46 µM (active)
same,IC50,[5],88.9 µM (active)
same,IC50,[6],> 100 µM (inactive)
COc1c(-c2nc3ccccc3[nH]2)c(O)cc2oc(C)cc(=O)c12,Ki,[7],0.794 µM (active)
same,Ki,[8],2 µM (active)
same,Ki,[9],1.58 µM (active)
same,Ki,[10],1 µM (active)
same,Ki,[11],2 µM (active)
CCc1ccc(S(=O)(=O)/N=C2\C=C(Nc3ccc(O)cc3)C(=O)c3ccccc32)cc1,IC50,[12],3.96 µM (active)
same,EC50,[13],2.83 µM (active)
Cc1cc([N+](=O)[O-])cc(/C=N\NC(=O)C2COc3ccccc3O2)c1O (stereo not drawn),IC50,[14],3.05 µM (active)
Cc1ccc(F)c(NC(=O)Nc2ccc(-c3cccc4[nH]nc(N)c34)cc2)c1 [LINIFANIB],Ki,[15],2.51 µM (active)
same,Ki,[16],> 7.94 µM (inactive)
same,Ki,[17],> 6.31 µM (inactive)
same,Ki,[18],> 10 µM (inactive)
same,Ki,[19],> 5.01 µM (inactive)
same,Ki,[20],> 1.58 µM (inactive)
same,Ki,[21],> 3.98 µM (inactive)
same,Ki,[22],0.0398 µM (active)
same,Ki,[23],0.316 µM (active)
